Assay results as given in US20150119352A1, “DINUCELOSIDE POLYPHOSPHATES FOR THE TREATMENT OF PAIN” (GlobalAcorn Ltd., priority 2012, published 2015).
Entries after “also recorded” stand apart in the source; their conditions may differ.

Columns and labels:
[1] = biological target: T1, native P2X3 receptors, trigeminal ganglia (TG) neurons (Rattus norvegicus, UniProt P49654); test: α,β-meATP-induced currents in cultured trigeminal ganglia neurons; assay type: cell-based; conditions: read-out: inhibition (suppression) of the peak current
T1 construct: Modulation of Native P2X3 Receptors in Rat Cultured Sensory Neurons; endogenous in cells; host or cells: primary cultured rat trigeminal ganglion and dorsal root ganglion neurons
T1 sequence (P49654 1-397): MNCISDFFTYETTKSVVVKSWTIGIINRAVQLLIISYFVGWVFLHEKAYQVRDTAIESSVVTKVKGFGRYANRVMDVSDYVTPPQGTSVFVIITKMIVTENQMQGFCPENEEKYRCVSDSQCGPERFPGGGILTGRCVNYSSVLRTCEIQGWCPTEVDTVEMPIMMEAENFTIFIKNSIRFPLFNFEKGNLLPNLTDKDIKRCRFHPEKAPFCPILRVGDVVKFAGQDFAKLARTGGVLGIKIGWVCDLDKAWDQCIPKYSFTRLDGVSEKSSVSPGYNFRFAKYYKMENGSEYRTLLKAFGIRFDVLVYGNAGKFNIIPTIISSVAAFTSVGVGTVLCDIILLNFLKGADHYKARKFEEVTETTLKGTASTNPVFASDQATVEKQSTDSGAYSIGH
Description: (§1) Rat trigeminal (TG), nodose (NG) or dorsal root ganglion (DRG) neurons in culture were prepared as described previously (Sokolova et al., 2001; Simonetti et al., 2006). Neurons were plated on poly-L-lysine (0.2 mg/mL)-coated Petri dishes and cultured for 1 to 2 days under an atmosphere containing 5% CO2. Cells were used within 2 days of plating when they lacked processes. HEK293T cells were prepared as reported previously (Fabbretti et al., 2004; Sokolova et al., 2004) and transfected with rat full-length P2X3 cDNA subcloned into pIRES2-EGFP (Clontech, Mountain View, Calif., USA).
(§2) Trigeminal, nodose, DRG neurons or HEK cells were recorded in the whole-cell configuration while being continuously superfused (at 2 mL/min) with control solution containing (in mM): 152 NaCl, 5 KCl, 1 MgCl2, 2 CaCl2, 10 glucose, and 10 HEPES; pH was adjusted to 7.4 with NaOH and osmolarity was adjusted to 320 mOsM with glucose. […] Responses to selective P2X3 receptor agonist α,β-methylene-ATP (α,β-meATP; resistant to ectoATPase hydrolysis, Sigma-Aldrich) were measured using an EPC-9 amplifier and HEKA Patch Master software (HEKA Electronik, Germany). Cells were voltage-clamped at −70 mV. In most cells, series resistance was compensated by 80%. […]
(§3) The peak amplitudes of the responses were measured using HEKA Patch Master software. […]

[2] = tested on: native P2X3 receptors, trigeminal ganglia (TG) neurons; test: as above; assay type: cell-based, rat; conditions: 1 μM, TG neurons
Description: as §1, §2, §3

[3] = tested on: native P2X3 receptors, nodose ganglia (NG) neurons; test: α,β-meATP-induced currents in cultured nodose ganglia neurons; assay type: cell-based, rat; conditions: 1 μM
Description: as §1, §2, §3

[4] = biological target: T2, rat homomeric P2X4 receptors (Rattus norvegicus, UniProt P51577); test: Whole-cell patch clamp, rat homomeric P2X4 receptors; assay type: cell-based; conditions: 1 μM; ATP
T2 construct: expressed in transfected cells
T2 sequence (P51577 1-388): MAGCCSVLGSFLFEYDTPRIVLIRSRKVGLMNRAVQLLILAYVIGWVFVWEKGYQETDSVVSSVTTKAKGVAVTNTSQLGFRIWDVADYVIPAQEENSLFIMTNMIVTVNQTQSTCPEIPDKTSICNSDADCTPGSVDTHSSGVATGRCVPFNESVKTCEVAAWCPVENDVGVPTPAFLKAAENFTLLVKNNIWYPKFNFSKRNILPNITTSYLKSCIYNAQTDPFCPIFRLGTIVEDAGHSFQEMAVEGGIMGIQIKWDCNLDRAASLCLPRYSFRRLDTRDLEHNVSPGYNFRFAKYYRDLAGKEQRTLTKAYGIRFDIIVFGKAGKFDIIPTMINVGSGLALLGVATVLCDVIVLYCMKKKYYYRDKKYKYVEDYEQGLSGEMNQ
Description: FIG. 4. […] A. Example traces of responses induced by 10 μM ATP applied for 2 s every 2 min to HEK cells expressing rat homomeric P2X2 receptors in the presence and absence of 1 μM AppNHppA. B. Comparison of currents induced by the full agonist of P2X2 receptors, ATP, in the presence of 1 μM AppNHppA (right) and absence (left). C. The time course of the current in the presence and absence of 1 μM AppNHppA. D. Comparison of currents induced by the full agonist of rat homomeric P2X4 and P2X7 receptors, ATP, in the presence of 1 μM AppNHppA (right) and absence (left). Experiments were performed as in FIG. 2.
as §2

Nc1ncnc2c1ncn2[C@@H]1O[C@H](COP(=O)(O)OP(=O)(O)NP(=O)(O)OP(=O)(O)OC[C@H]2O[C@@H](n3cnc4c(N)ncnc43)C(O)C2O)C(O)C1O (stereo in doubt) [AppNHppA]
inhibition at 1 µM [1]: 80.3 ± 4.4%
inhibition of sustained residual component [2]: 15±6%
inhibition of sustained residual component [3]: 2±4%
inhibition (suppression) of the peak current ([3]; 10 μM α,β-meATP): 16.8±11.8%
effect on P2X4 receptor-mediated currents [4]: not observed to produce any effects; also recorded: non-inhibitory effect
